The record followed here is ChEMBL document CHEMBL1146985, “Investigation of the mechanism of action of 3-(4-bromophenyl)-5-acyloxymethyl-2,5-dihydrofuran-2-one against Candida albicans by flow cytometry” (Bioorg Med Chem Lett, 2006).

Calls of active or inactive are those of the source. No cut-off for these calls is given here.

Assay [1] deals with Candida albicans. Description: Antifungal activity against Candida albicans ATCC 90028 at 10 ug/ml. The format is functional, organism-based.
Assay [2] deals with Candida albicans. Description: Antifungal activity against Candida albicans ATCC 90028 at 100 ug/ml. Type of assay: functional, organism-based.

Turning to `CC(=O)OCC1C=C(c2ccc(Br)cc2)C(=O)O1` (configuration not stated), in the assay with Candida albicans [1], the outcome was Active.

On to `O=C1OC(CO)C=C1c1ccc(Br)cc1` (configuration not stated), for which, in the assay on Candida albicans [2], the result was Active.
